Measurements: patent publication US10695279B2, “Peptide having skin-whitening activity and use thereof” (CAREGEN CO., LTD., priority 2017, dated 2020)

How the values were obtained:
[1] = tested on: human keratinocyte line (HaCaT); conditions: melanosomes isolated from B16F10, peptide 10, 50, 100, 200 uM, 48 hours, Fontana-Masson staining, dose-dependent, FIG. 11
Protocol: After human keratinocyte line (HaCaT) was cultured in 6-well culture plates for 24 hours, the melanosomes isolated from mouse melanoma cell line (B16F10) were pretreated for 3 hours in serum-free culture medium. Then, the cells were treated with the present peptide at different concentrations (10, 50, 100, 200 uM) or arbutin (200 uM) as a positive control, followed by incubation for 48 hours. Then, the plates were washed with PBS to remove un-transferred melanosomes, and subjected to Fontana-Masson staining to observe the inhibition of the melanosome phagocytosis by keratinocytes through a microscope.

[2] = tested on: tyrosinase; experiment: Measurement of tyrosinase expression level (fluorescence microscope, tyrosinase antibody); format: cell-based, mouse; conditions: B16F10, α-MSH (200 ng/ml), peptide 50, 100 uM, 48 hours; dose-dependent; FIG. 5
Protocol: Then, the cells were incubated for 48 hours, and the intracellular expression protein was stained with FITC-conjugated tyrosinase antibody (Santa Cruz biotechnology, USA) and FITC-conjugated secondary IgG antibody (Santa Cruz biotechnology, USA).

[3] = tested on: tyrosinase; experiment: Gene expression of melanin-forming factors (PCR): tyrosinase; format: cell-based, mouse; conditions: B16F10, α-MSH (200 ng/ml), peptide 100, 200 uM, 24 hours, FIG. 6
[4] = tested on: human keratinocyte line (HaCaT); conditions: melanosomes pretreated 48 hours, peptide 100, 200 uM, dose-dependent, FIG. 13
Protocol: After human keratinocyte line (HaCaT) was cultured in 6-well culture plates for 24 hours, melanosomes isolated from mouse melanoma cell line (B16F10) were pretreated for 48 hours in serum-free culture medium. The plates were washed with PBS to remove un-transferred melanosomes, and then the cells were treated with the peptide at different concentrations (100, 200 uM) or arbutin (200 uM) as a positive control, and TGFβ-1, followed by incubation for 48 hours. In order to measure the degradation of melanosomes phagocytized into keratinocytes, 1 M NaOH was added to pellets obtained by keratinocyte collection and precipitation, and the pellets were dissolved in an oven at 80° C., and then the OD value at 490 nm was measured.

[5] = tested on: melanin-forming cells (B16F10 cell line); conditions: B16F10, α-MSH (200 ng/ml), peptide 50, 100, 200 uM, 72 hours; dose-dependent, **P≤0.01; FIGS. 2a and 2b
Protocol: After melanin-forming cells (B16F10 cell line) dispensed in 6-well culture plates were incubated in a 37° C. incubator for 24 hours, the medium for each plate was removed and then replaced with new medium (2% serum medium). Then, the cells were treated with α-MSH (200 ng/ml), arbutin (200, 500 uM), or the peptide of the present invention at different concentrations (50, 100, 200 uM). Thereafter, the cells were incubated for 72 hours, and then the culture medium was removed. The cells were detached and then transferred into a 1.5 ml tube, followed by centrifugation at 13,000 rpm for 3 minutes. The supernatant was removed, and cell pellets were collected to observe melanin. Then, 150 μl of 2 M NaOH was added to the cell pellets to lyse intracellular melanin at 60° C. for 30 minutes. Then, 100 μl of the supernatant obtained from the lysis was added into each well of a 96-well plate, and the absorbance at 490 nm was measured.

[6] = tested on: human keratinocyte line (HaCaT); conditions: peptide 100, 200 uM, 24 hours, Vybrant Phagocytosis Assay Kit, FIG. 12
Protocol: After human keratinocyte line (HaCaT) was cultured in 24-well culture plates for 24 hours, the cells were treated with the present peptide at different concentrations (100, 200 uM) or arbutin (200 uM) as a positive control in 0.5% FBS culture medium, followed by incubation for 24 hours. Thereafter, the inhibition of phagocytosis of the human keratinocyte line was observed using the Vybrant Phagocytosis Assay Kit (V-6694).

[7] = tested on: TRP1; conditions: B16F10, α-MSH (200 ng/ml), peptide 100, 200 uM, 24 hours, PCR; FIG. 6
Protocol: (§1) After melanin-forming cells (B16F10 cell line) were incubated in 6-well culture plates for 24 hours, the cells were treated with α-MSH (200 ng/ml), arbutin (500 uM), or the present peptide at different concentrations (100, 200 uM). After RNA was extracted from the cells incubated for 24 hours, cDNA was prepared. Then, PCR was conducted using the primers shown in Table 2 below, which are specific to MITF, tyrosinase, and TRP1, respectively, as melanogenesis-involved factors, and then the change in the expression of each gene was observed.

[8] = tested on: MITF; conditions: B16F10, α-MSH (200 ng/ml), peptide 100, 200 uM, 24 hours, PCR; FIG. 6
Protocol: as §1

[9] = tested on: PAR2; conditions: HaCaT, trypsin-induced, peptide 100, 200 uM, 16 hours, PCR; FIG. 9
Protocol: After a human keratinocyte line (HaCaT) was incubated in 6-well culture plates for 24 hours, the cells were treated with trypsin as an activity-inducing material and the present peptide at different concentrations (100, 200 uM). After RNA was extracted from the cells incubated for 16 hours, cDNA was prepared.
PCR was conducted using a primer pair (see table 3 below) specific to PAR2, which is one of surface receptors of keratocytes activated by a trypsin action, and then the change in the expression of each gene was observed.

[10] = tested on: melanin-forming cells (B16F10 cell line); conditions: B16F10, α-MSH (200 ng/ml), peptide 50, 100, 200 uM, 72 hours; dose-dependent; FIG. 3
Protocol: After melanin-forming cells (B16F10 cell line) dispensed in 6-well culture plates were incubated in a 37° C. incubator for 24 hours, the medium for each plate was removed and replaced with new medium (10% serum medium). Then, the cells were treated with α-MSH (200 ng/ml), arbutin (500 uM), or the peptide of the present invention at different concentrations (50, 100, 200 uM). The cells were incubated for 72 hours, and then the formed melanin was observed through an optical microscope.

[11] = tested on: C57BL/6 mice; experiment: In vivo whitening effect, application to the tail; conditions: C57BL/6 mice tail skin, liposomal peptide 5,000 ppm once a day, about 8 weeks, F&M staining, versus control group; FIGS. 14b and 14c
Protocol: Liposomal peptide (5,000 ppm) or arbutin as a positive control was applied to the tail of 8-week-old C57BL/6 mice once a day, and the experiment was conducted for about 8 weeks. After the completion of the experiment, the mice were sacrificed to extract tail skin tissues, which were then embedded in paraffin to manufacture paraffin blocks. Then, the paraffin blocks were made into paraffin sections and morphologically observed through Fontana-Masson staining.

[12] = tested on: CREB; conditions: B16F10, α-MSH (200 ng/ml), peptide 50, 100 uM, 10 minutes, western blot; FIG. 8
Protocol: (§2) After melanin-forming cells (B16F10 cell line) were incubated in 6-well culture plates for 24 hours, the cells were treated with α-MSH (200 ng/ml) or the present peptide at different concentrations (50, 100 uM).

[13] = tested on: MITF; conditions: B16F10, α-MSH (200 ng/ml), peptide 50, 100 uM, 72 hours, western blot; FIG. 7
Protocol: as §2

[14] = tested on: tyrosinase; experiment: Protein expression of melanin-forming factors (western blot): tyrosinase; format: cell-based, mouse; conditions: B16F10, α-MSH (200 ng/ml), peptide 50, 100 uM, 72 hours, FIG. 7
[15] = biological target: T1, tyrosinase (Mus musculus, UniProt P11344); experiment: Measurement of tyrosinase activity in cells (L-dopa, absorbance at 475 nm); format: cell-based; conditions: B16F10, α-MSH (200 ng/ml), peptide 50, 100, 200 uM, 72 hours; dose-dependent, **P≤0.01; FIG. 4
T1 construct: endogenous in cells; host or cells: B16F10 mouse melanoma cells
T1 sequence (P11344 19-533): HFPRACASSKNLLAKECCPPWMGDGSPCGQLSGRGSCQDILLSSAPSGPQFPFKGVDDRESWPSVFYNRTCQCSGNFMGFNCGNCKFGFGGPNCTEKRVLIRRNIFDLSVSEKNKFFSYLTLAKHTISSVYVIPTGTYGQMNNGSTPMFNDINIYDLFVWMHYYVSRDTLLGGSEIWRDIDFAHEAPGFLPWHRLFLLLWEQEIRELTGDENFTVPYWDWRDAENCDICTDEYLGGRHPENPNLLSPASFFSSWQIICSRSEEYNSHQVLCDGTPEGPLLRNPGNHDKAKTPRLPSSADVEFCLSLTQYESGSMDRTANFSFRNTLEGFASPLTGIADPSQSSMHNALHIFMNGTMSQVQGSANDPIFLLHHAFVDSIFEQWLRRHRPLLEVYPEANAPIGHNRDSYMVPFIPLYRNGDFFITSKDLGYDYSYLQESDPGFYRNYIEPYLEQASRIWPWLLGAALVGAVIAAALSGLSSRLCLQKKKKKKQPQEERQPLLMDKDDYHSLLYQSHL
Protocol: The 6-well culture plates were loaded on ice and washed with cool PBS, and then 300 μl of 0.1 M sodium phosphate buffer (pH 6.8 lysis buffer) containing 1% Triton X-100 was added. The cells were collected in a 1.5 mL tube, and then cell membranes were disrupted by repeating rapid-freezing at […] and thawing, five times. Then, the tube was centrifuged at 13,000 rpm for 20 minutes, and then the supernatant was collected in another 1.5 mL tube, and the protein content of the samples was quantified. The samples were diluted to have the same protein concentration and then dispensed in three wells each in a 96-well culture plate, and then 20 μl of 10 mM L-dopa was added, followed by incubation at 37° C. for 1 hour.

[16] = tested on: human keratinocyte line (HaCaT); conditions: melanosomes isolated from B16F10, peptide 10, 50, 100, 200 uM, 48 hours, FIG. 10
Protocol: After human keratinocyte line (HaCaT) was cultured in 6-well culture plates for 24 hours, the melanosomes isolated from mouse melanoma cell line (B16F10) were pretreated for 3 hours in serum-free culture medium, and then the cells were treated with the present peptide at different concentrations (10, 50, 100, 200 uM) or arbutin (200 uM) as a positive control, followed by incubation for 48 hours. Then, the plates were washed with PBS to remove un-transferred melanosomes, and 1 N NaOH was added to pellets, which had been obtained through cell collection and precipitation. Then, 1 M NaOH was added to the pellets, and the pellets were dissolved in an oven at 80° C., and then the OD value at 490 nm was measured.

Substance: Feruloyl-Ile-Trp-Ser-Leu-Asp-Thr-Gln-Tyr-Gly-Gly-Arg-Gly-Asp-COOH
- amount of melanosomes transferred into keratinocytes (optical microscope image analysis) [1]: phagocytosis inhibitory effect
- tyrosinase expression level [2]: tyrosinase expression inhibitory effect
- tyrosinase gene expression [3]: strong effects of inhibiting MITF, tyrosinase, and TRP1 genes
- degradation of melanosomes transferred into keratinocytes [4]: promote the degradation of the melanosomes transferred into the keratinocytes
- melanin production [5]: melanogenesis inhibitory effect
- amount of bioparticles transferred into keratinocytes (fluorescent microscopic image analysis) [6]: distinctive phagocytosis inhibitory effect
- TRP1 gene expression [7]: strong effects of inhibiting MITF, tyrosinase, and TRP1 genes
- MITF gene expression [8]: strong effects of inhibiting MITF, tyrosinase, and TRP1 genes
- PAR2 gene expression [9]: reduced the expression of PAR2 gene in a dose-dependent manner
- melanin formation observed through cell morphology [10]: melanogenesis inhibitory effect
- amount of melanin distributed in the basal layer of the epidermis [11]: significantly smaller than that in the control group
- degree of phosphorylation of CREB [12]: CREB phosphorylation inhibitory effect
- MITF protein expression [13]: MITF and tyrosinase protein expression inhibitory effects
- tyrosinase protein expression [14]: MITF and tyrosinase protein expression inhibitory effects
- tyrosinase activity in cells [15]: tyrosinase activity inhibitory effect
- amount of melanosomes transferred into keratinocytes (absorbance) [16]: phagocytosis inhibitory effect
